Laboratory results taken from US20100004159A1, “SUBSTITUTED IMIDAZOLONE DERIVATIVES, PREPARATIONS AND USES” (GENFIT, priority 2006, published 2010).

How the values were obtained:
PPARs target genes = assay: Expression of PPAR target genes by quantitative RT-PCR in db/db mouse tissue; type: in vivo; details: db/db mice, 50 mpk for 28 days
Method: Samples of hepatic tissue and adipose epididymal tissue were taken and frozen immediately in liquid nitrogen then conserved at −80° C. for later analysis.
Total RNA was extracted from liver fragments by using a NucleoSpine 96 RNA kit (Macherey Nagel, Hoerdt, France) according to the manufacturer's instructions.
The total RNA of the adipose tissue was extracted from tissue fragments with a method using guanidine thiocyanate. The tissues were briefly homogenized in 5 mL of a lysis buffer (guanidine thiocyanate 4M, EDTA pH8 10 mM, Tris HCl pH 7.5 50 mM and b-mercaptoethanol 1.4%) using polytron. To separate the layers, 500 μL of sodium acetate 2M pH4, 5 mL of phenol, and 2 mL of a mixture of chloroform/isoamylic alcohol (49:1) were added. After centrifugation, the aqueous layer was collected and the RNA was precipitated in the presence of isopropanol. After a second precipitation, the RNA was washed with ethanol 70°, dried, then suspended again in an volume of water free of RNase. A step of purification/DNase I treatment of the RNA was then carried out by using NucleoSpin® 96 RNA kit (Macherey-Nagel) according to the manufacturer's instructions. 1 μg of total RNA (quantified by using the Ribogreen RNA quantification kit (Molecular Probes)) was then reverse-transcribed into cDNA by means of a 1 hour reaction at 37° C. in a total volume of 20 μl containing a buffer 1× (Sigma), 1.5 mM of DTT, 0.18 mM, of dNTPs (Promega), 200 ng of pdN6 (Amersham), 30 U of RNase inhibitor (Sigma), and 1 μl of MMLV-RT (Sigma). The quantitative PCR experiments were carried out using the MyiQ Single-Color Real-Time PCR Detection System (Biorad, Marnes-la-Coquette, France) and were performed using the iQ SYBR Green Supermix kit according to the manufacturer's recommendations, in 96-well plates in 5 μl of a diluted reverse transcription solution at a hybridization temperature of 55° C. Primer pairs specific to the studied genes were used:
The quantity of emitted fluorescence is directly proportional to the quantity of cDNA present at the beginning of the reaction and amplified during the PCR. For each target studied, a range of solutions is performed with successive dilutions of a mixture made up of a few μl of different reverse-transcription solutions. The relative levels of expression of each target are thus determined by using efficiency curves obtained with the points relative to the range.
The expression levels of the genes of interest were then normalized, in the hepatic tissue with respect to the level expression of reference gene 36B4 (whose specific primers are: sense primer: 5′-[…]-3′ (SEQ ID NO: 15) and antisense primer: 5′-[…]-3′ (SEQ ID NO: 16)), and in the adipose tissue with respect to reference gene 18S (whose specific primers are: sense primer: 5′-[…]-3′ (SEQ ID NO: 17) and antisense primer: 5′-[…]-3′ (SEQ ID NO: 18)). The induction factor was then calculated for each sample. The higher the induction factor is, the more the compound promotes gene expression. The final result is represented as the average of the induction values within each experimental group.

hPPARγ = biological target: T1, hPPARγ (Homo sapiens, UniProt P37231); assay: Gal4-hPPARγ transactivation in COS-7 cells (luciferase); type: cell-based; details: for EC50: Gal4-hPPARγ chimera, COS-7 cells, 24 hours
T1 construct: DNA fragments amplified by PCR and corresponding to the DEF domains of human PPARα, PPARγ, and PPARδ nuclear receptors; expressed in transfected cells; host or cells: COS-7
T1 sequence (P37231 238-503 limits assumed): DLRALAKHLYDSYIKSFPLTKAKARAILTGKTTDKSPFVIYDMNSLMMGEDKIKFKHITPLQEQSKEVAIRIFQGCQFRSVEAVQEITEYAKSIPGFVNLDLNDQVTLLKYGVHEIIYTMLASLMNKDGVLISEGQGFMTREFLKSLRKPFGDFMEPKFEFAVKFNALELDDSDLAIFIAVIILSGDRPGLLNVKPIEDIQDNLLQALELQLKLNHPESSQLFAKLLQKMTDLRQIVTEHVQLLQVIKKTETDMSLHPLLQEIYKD
Method: The activation of PPARs was evaluated in vitro using a monkey kidney fibroblast line (COS-7) by measuring the transcriptional activity of chimeras made up of the DNA binding domain of the Gal4 transcription factor of yeast and of the binding domain to the ligand of the different PPARs. The compounds were tested at doses of between 0.01 and 100 μM on Gal4-PPARα, γ, and δ chimeras.
COS-7 cells came from ATCC (American type culture collection) and were cultivated in a DMEM medium supplemented with 10% (vol/vol) of fetal calf serum, 100 U/ml of penicillin (Gibco, Paisley, UK) and 2 mM of L-Glutamine (Gibco, Paisley, UK). The cells were incubated at 37° C. under humid atmosphere containing 5% CO2.
The plasmids Gal4(RE)_TkpGL3, pGal4-hPPARα, pGal4-hPPARγ, pGal4-hPPARδ and pGal4-φ have been described in the literature (Raspe E et al., 1999). The constructions pGal4-hPPARα, pGal4-hPPARγ, and pGal4-hPPARδ were obtained by cloning, in the pGal4-φ vector, DNA fragments amplified by PCR and corresponding to the DEF domains of human PPARα, PPARγ, and PPARδ nuclear receptors.
The COS-7 cells in suspension were transfected with 150 ng of DNA per well, with a pGal4-PPAR/Gal4(RE)_TkpGL3 ratio of 1/10, in presence of 10% fetal calf serum. The cells were then plated in 96-well plates (4×10^4 cells/well), then incubated for 24 hours at 37° C. Activation with the test compounds was performed for 24 hours at 37° C. in a medium without serum. At the end of the experiment, the cells were lysed and the luciferase activity was determined using the Steady-Lite™ HTS (Perkin Elmert) or the Steady Glow Luciferase kit (Promega), in accordance with the provider's recommendations.
The compounds according to the invention were tested at doses between 0,01 and 100 μM on the 3 PPAR isoforms. The results obtained are presented in detail under FIG. 1a.

activation of hPPARγ (luciferase activity) (hPPARγ; COS-7 cells transfected pGal4-hPPAR, 0.01 to 100 μM) | EC50 (hPPARγ) | Compound | hepatic expression of the gene coding for CPT1 b (PPARs target genes) | hepatic expression of the gene coding for PDK-4 (PPARs target genes) | expression of the gene coding for ApoCIII (PPARs target genes; liver) | expression of the gene coding for FBb (PPARs target genes; liver)
activate the two PPAR isoforms | 8 µM | CCCCC1=NC2(CCCC2)C(=O)N1Cc1ccc(-c2cccc(OC(C)(C)C(=O)O)c2)cc1 [Compound 1, 2-butyl-1-[(3′-((1-carboxy-1,1-dimethylmethyl)oxy)biphenyl-4-yl)methyl]-4-spirocyclopentyl-1H-imidazol-5(4H)-one] | significant increase | significant increase | significant decrease | significant decrease
– | 1 µM | CCCCC1=NC2(CCCCC2)C(=O)N1Cc1ccc(-c2cccc(OC(C)(C)C(=O)O)c2)cc1 [Compound 21, 2-butyl-1-[(3′-((1-carboxy-1,1-dimethylmethyl)oxy)biphenyl-4-yl)methyl]-4-spirocyclohexyl-1H-imidazol-5(4H)-one] | – | – | – | –
